From ChEMBL document CHEMBL1145270 (Bioorg Med Chem Lett, 2005) come the findings set out here.

SMILES strings stand for the structures.

The target of assay [1] is T1, Alpha-2C adrenergic receptor (Homo sapiens, UniProt P18825).
T1 sequence (P18825 whole entry): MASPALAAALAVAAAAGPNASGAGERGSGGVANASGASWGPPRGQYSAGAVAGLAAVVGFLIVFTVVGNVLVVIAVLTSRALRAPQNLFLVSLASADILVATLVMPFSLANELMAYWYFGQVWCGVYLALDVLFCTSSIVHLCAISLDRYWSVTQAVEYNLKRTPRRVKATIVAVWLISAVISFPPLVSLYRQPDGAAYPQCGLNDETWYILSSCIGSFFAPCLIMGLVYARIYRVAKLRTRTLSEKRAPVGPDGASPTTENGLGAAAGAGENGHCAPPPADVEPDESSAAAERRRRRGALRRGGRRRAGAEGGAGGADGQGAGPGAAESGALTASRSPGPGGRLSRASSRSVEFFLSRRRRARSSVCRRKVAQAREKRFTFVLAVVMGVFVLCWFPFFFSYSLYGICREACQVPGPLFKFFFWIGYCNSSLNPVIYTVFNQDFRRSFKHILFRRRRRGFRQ
The experiment in a line: In vitro binding affinity measured by displacement of [3H]rauwolscine from alpha-2c adrenergic receptor expressed in CHO cells in presence of phentolamine. It counts as cell-based.

Assay [2] addresses T2, Alpha-2A adrenergic receptor (Homo sapiens, UniProt P08913).
T2 sequence (P08913 whole entry): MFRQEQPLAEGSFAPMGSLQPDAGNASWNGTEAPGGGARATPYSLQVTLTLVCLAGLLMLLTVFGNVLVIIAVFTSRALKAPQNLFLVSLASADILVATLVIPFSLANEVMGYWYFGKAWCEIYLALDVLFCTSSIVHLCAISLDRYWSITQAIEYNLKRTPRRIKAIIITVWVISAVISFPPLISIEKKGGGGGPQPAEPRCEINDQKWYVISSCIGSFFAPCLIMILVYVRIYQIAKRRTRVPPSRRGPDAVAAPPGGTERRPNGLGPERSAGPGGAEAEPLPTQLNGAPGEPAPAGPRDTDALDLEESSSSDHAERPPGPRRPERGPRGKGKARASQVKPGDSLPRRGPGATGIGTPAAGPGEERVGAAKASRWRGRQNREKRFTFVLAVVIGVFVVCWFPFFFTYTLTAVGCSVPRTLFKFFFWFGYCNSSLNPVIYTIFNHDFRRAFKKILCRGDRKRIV
The experiment in a line: In vitro binding affinity towards alpha-2a adrenergic receptor.

In assay [3] the target is T3, Alpha-2B adrenergic receptor (Homo sapiens, UniProt P18089).
T3 sequence (P18089 whole entry): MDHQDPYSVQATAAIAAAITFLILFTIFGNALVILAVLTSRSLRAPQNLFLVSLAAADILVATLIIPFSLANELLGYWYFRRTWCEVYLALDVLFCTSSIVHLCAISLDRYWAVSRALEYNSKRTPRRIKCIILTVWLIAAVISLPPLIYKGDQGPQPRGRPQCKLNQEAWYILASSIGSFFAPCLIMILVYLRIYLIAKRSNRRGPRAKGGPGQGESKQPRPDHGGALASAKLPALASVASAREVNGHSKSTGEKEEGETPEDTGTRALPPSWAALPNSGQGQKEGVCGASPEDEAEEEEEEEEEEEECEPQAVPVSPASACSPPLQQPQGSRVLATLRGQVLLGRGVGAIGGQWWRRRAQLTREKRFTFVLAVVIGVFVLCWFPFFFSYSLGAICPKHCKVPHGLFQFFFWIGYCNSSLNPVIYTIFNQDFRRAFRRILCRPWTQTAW
The experiment in a line: In vitro binding affinity towards alpha-2b adrenergic receptor.

For the molecule `COC(=O)CNC(=O)CNC(=O)[C@@H]1C2C[C@H]3c4[nH]c5ccccc5c4CCN3C[C@@H]2CC[C@@H]1O` (stereo partly specified), the inhibitory constant (Ki) in assay [1] was 5.2 nM. For `O=C(O)CCCNC(=O)[C@@H]1C2C[C@H]3c4[nH]c5ccccc5c4CCN3C[C@@H]2CC[C@@H]1O` (stereo partly specified), in assay [1], the inhibition constant Ki was 3 nM.

As to `CC(C)(C)OC(=O)NCCCNC(=O)[C@@H]1C2C[C@H]3c4[nH]c5ccccc5c4CCN3C[C@@H]2CC[C@@H]1O` (stereo partly specified), the inhibition constant Ki in assay [1] amounted to 2.8 nM.

As to `NCCCNC(=O)[C@@H]1C2C[C@H]3c4[nH]c5ccccc5c4CCN3C[C@@H]2CC[C@@H]1O` (stereo partly specified), in assay [1], the Ki was found to be 32 nM. With `O=C(CCCNC(=O)[C@@H]1C2C[C@H]3c4[nH]c5ccccc5c4CCN3C[C@@H]2CC[C@@H]1O)OCc1ccccc1` (stereo partly specified), the results for the Ki in assay [2], in assay [1] and in assay [3] were 29 nM, 0.65 nM and 1300 nM, respectively. In the case of `O=C(NCCCNC(=O)[C@@H]1C2C[C@H]3c4[nH]c5ccccc5c4CCN3C[C@@H]2CC[C@@H]1O)OCc1ccccc1` (stereo partly specified), in assay [1], the inhibition constant Ki was 1.1 nM. Consider `COC(=O)CNC(=O)[C@@H]1C2C[C@H]3c4[nH]c5ccccc5c4CCN3C[C@@H]2CC[C@@H]1O` (stereo partly specified), for which the inhibitory constant (Ki) in assay [1] was found to be 8 nM. For `O=C(NCCCNC(=O)[C@@H]1C2C[C@H]3c4[nH]c5ccccc5c4CCN3C[C@@H]2CC[C@@H]1O)[C@H]1[C@@H]2C[C@@H]3c4[nH]c5ccccc5c4CCN3C[C@H]2CC[C@H]1O` (stereo partly specified), the Ki in assay [1] was 8.5 nM. In the case of `O=C(O)[C@@H]1C2C[C@H]3c4[nH]c5ccccc5c4CCN3C[C@@H]2CC[C@@H]1O` (stereo partly specified), the Ki in assay [1] was 19 nM.

In general, Ki refers to the dissociation constant of the complex between target and ligand, obtained from inhibition or displacement.
